What was measured:
gastric acidity = test: Effect on inhibition of acidity (total acid output), in vivo, Shay method (TEST 2); design: species or system rat (SD male rats); conditions: for Volume (acidity, total acid output) / Inhibition rate, acidity: 5 hours; for Volume (acidity, total acid output): pylorus-ligated rats; for Inhibition rate, acidity: vs normal group
Description: (§1) The specific test methods are as follows.
(§2) SD male rats (200±20 g) were fasted for 24 hours, except for water, and then anesthesized with ether. The abdomen of rats was incised and then the pylorus was ligated. The test compounds were suspended or dissolved in 5% CMC (carboxymethylcellulose) and injected into duodenum. After the abdomen was sutured, the rats were allowed to stand for 5 hours and then sacrificed with ether. The stomach was removed from rats and the gastric juices were collected. The gastric juice was centrifuged with 10,000 xg for 10 minutes at 4° C. to remove the precipitate. The amount of gastric juice and acidity were determined using pH 7.0 end point assay with 0.02N NaOH and then the total acid output was calculated.

ICR (male, female) mouse = test: in vivo; conditions: po
Description: (§3) Five weeks aged ICR (male, female) mouse were pre-bred in the breeding cage for one week and then the animals showing a smooth gain in body weight were randomly selected and used in this test. The amount to be administered to the test animals was established on the basis of the maximum dose of 4,000 mg/kg with the common ratio of 1.5.
(§4) The test compounds in a powder form were suspended in 0.5% methylcellulose and administered per oral using a syringe. The other specific conditions for administration are described in the following.
(§5) In the above test, the control group received only 0.5% methylcellulose.

in vivo = conditions: mouse, po
Description: as §3, §4, §5

H^+ /K^+ -ATPase = target: T1, H^+ /K^+ -ATPase (Oryctolagus cuniculus, UniProt P27112); test: Inhibition of enzyme activity: in vitro inhibition of H+/K+-ATPase (TEST 1); assay type: biochemical, rabbit; conditions: 5 min pre-incubation at 37° C., 4 mM ATP
T1 construct: The gastric mucous membrane was removed from a rabbit; from tissue; host or cells: rabbit gastric mucosa, microsomal fraction (77,000 g)
Description: In this test, omeprazole [5-methoxy-2-[[(4-methoxy-3,5-dimethyl-2-pyridinyl)methyl]sulfinyl]-1H-benzimidazole] was used as the control compound.
The gastric mucous membrane was removed from a rabbit and then centrifuged with 77,000 g using a ultra-centrifuge to separate the microsomal fraction which was used as the source of H^+ /K^+ -ATPase enzyme for this test. 60 μg of H^+ /K^+ -ATPase was pre-incubated with the sample (the compound according to the present invention) for 5 minutes at 37° C. and then 4 mM ATP as the substrate and 4 mM Mg^++, 20 mM K^+ as the cofactor were added thereto. Then, the amount of inorganic phosphorus thus produced was determined using a spectrophotometer at 660 nm and converted into the amount of protein. […]

gastric juice secretion = test: Effect on inhibition of gastric juice secretion, in vivo, Shay method (TEST 2); design: species or system rat (SD male rats); conditions: for Volume of gastric juice / Inhibition rate, gastric juice secretion: 5 hours; for Volume of gastric juice: pylorus-ligated rats; for Inhibition rate, gastric juice secretion: vs normal group
Description: as §1, §2

[1] = in words, even at a lower dose than that of the known anti-ulcer agent

T1 sequence (P27112 2-1035 limits assumed): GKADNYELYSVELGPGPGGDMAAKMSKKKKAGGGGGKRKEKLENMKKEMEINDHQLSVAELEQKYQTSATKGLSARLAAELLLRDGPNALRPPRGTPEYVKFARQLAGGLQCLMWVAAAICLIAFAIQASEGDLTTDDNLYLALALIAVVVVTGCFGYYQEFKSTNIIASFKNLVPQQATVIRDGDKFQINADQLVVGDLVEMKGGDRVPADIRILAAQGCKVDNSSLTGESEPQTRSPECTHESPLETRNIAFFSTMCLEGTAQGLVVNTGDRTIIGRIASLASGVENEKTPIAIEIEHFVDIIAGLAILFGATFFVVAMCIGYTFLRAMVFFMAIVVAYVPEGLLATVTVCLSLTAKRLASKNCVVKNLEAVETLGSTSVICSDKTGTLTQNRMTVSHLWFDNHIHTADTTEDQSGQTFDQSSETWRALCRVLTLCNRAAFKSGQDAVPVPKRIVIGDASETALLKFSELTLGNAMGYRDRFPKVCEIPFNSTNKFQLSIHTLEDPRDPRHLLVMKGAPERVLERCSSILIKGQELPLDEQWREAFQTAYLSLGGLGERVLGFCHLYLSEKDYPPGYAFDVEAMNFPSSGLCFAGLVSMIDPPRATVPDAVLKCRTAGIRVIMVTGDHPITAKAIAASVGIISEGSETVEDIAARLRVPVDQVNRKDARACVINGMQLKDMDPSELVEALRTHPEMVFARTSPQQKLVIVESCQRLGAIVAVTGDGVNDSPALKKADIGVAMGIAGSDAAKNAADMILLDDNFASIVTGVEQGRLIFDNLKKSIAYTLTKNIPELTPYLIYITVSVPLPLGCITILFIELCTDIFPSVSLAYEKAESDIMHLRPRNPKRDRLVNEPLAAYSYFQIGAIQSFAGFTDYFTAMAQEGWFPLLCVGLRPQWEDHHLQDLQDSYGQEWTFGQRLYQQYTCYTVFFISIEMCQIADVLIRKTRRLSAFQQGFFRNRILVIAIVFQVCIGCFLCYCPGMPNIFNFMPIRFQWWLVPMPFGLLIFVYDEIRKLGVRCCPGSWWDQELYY
T1 sequence (P18597 whole entry partner): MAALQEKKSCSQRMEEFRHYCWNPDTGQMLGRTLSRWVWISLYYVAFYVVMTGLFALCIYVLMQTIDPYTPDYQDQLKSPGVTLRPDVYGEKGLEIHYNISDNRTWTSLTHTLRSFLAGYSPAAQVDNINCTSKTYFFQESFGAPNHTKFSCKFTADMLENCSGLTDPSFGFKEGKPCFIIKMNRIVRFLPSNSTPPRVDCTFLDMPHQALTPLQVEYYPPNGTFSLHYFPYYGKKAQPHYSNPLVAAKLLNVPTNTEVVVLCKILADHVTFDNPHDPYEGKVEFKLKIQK

Structure (SMILES): COc1ccnc(C[S+]([O-])c2nc3cc(-n4cccc4)ccc3[nH]2)c1C (stereo not drawn) [Compound 2, 2-[[(4-methoxy-3-methyl)-2-pyridinyl]methylsulfinyl]-5-(1H-pyrrol-1-yl)-1H-benzimidazole]
- Volume (acidity, total acid output) (gastric acidity; 3 mg/kg, into duodenum): 31.09 ± 4.10 μ Eq/hr
- Inhibition rate, acidity (gastric acidity; 3 mg/kg, into duodenum): 60.08%
- Volume (acidity, total acid output) (gastric acidity; 10 mg/kg, into duodenum): 10.20 ± 1.93 μ Eq/hr
- Inhibition rate, acidity (gastric acidity; 10 mg/kg, into duodenum): 86.90%
- Volume (acidity, total acid output) (gastric acidity; 30 mg/kg, into duodenum): 5.32 ± 3.30 μ Eq/hr
- Inhibition rate, acidity (gastric acidity; 30 mg/kg, into duodenum): 93.17%
- ED50 (gastric acidity; Rattus norvegicus, 5 h, rats, into duodenum): 1.6 mg/kg
- effect for lowering acidity (gastric acidity; in words): good effects
- acidity lowering effect (gastric acidity; [1]): high acidity lowering effect
- LD50 (ICR (male, female) mouse): > 4000.0 mg/kg
- change in body weight (ICR (male, female) mouse): does not affect the normal change in body weight
- change in internal and external organs (ICR (male, female) mouse): no effect on the internal and external organs
- safety (ICR (male, female) mouse): very safe compound
- LD50 (in vivo): ≥ 4000 mg/kg
- IC50 (H^+ /K^+ -ATPase): 23 µM
- Volume of gastric juice (gastric juice secretion; 3 mg/kg, into duodenum): 1.98 ± 0.23 ml/100 g BW
- Inhibition rate, gastric juice secretion (gastric juice secretion; 3 mg/kg, into duodenum): 46.45%
- Volume of gastric juice (gastric juice secretion; 10 mg/kg, into duodenum): 1.31 ± 0.10 ml/100 g BW
- Inhibition rate, gastric juice secretion (gastric juice secretion; 10 mg/kg, into duodenum): 64.55%
- Volume of gastric juice (gastric juice secretion; 30 mg/kg, into duodenum): 0.99 ± 0.14 ml/100 g BW
- Inhibition rate, gastric juice secretion (gastric juice secretion; 30 mg/kg, into duodenum): 73.11%
- ED50 (gastric juice secretion; Rattus norvegicus, 5 h, rats, into duodenum, read-out: ED50 for the effect on inhibition of gastric acid secretion): 3.6 mg/kg
- effect for inhibition of gastric acid secretion (gastric juice secretion; in words): good effects
- inhibition of gastric juice secretion (gastric juice secretion; [1]): strong inhibition of gastric juice secretion
